Series [1] has as its target T1, ERK1 (Homo sapiens, UniProt P27361).
T1 construct: purchased Jubilant Biosys
Briefly: ERK1 HTRF (biochemical) assay. On the procedure:
ERK1 and ERK2 HTRF (Biochemical) Assays
These assays employed a homogeneous time resolved fluorescence (HTRF) technique. […] The plate was incubated at room temperature for 60 min with shaking. […] The IC50 values (half maximal inhibitory concentration values) were subsequently determined using a sigmoidal dose-response curve (variable slope) in GraphPad Prism® 5 software.
In general terms: TR-FRET usually uses a lanthanide donor and a delayed reading to cut background.

In series [2] the target is T2, ERK2 (Homo sapiens, UniProt P28482).
T2 construct: purchased Jubilant Biosys
T2 sequence (P28482 whole entry): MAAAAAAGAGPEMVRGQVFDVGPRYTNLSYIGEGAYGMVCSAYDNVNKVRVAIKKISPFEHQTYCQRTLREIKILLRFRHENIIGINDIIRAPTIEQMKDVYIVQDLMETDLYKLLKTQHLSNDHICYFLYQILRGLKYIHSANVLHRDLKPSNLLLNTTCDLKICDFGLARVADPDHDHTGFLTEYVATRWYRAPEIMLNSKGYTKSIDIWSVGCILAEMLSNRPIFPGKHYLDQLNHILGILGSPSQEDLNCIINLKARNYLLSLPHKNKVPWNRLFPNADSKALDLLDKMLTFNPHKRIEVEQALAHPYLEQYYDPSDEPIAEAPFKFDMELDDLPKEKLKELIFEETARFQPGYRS
Briefly: ERK2 HTRF (biochemical) assay. The essentials: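 Readout was time-resolved FRET between europium anti-phospho-MBP and streptavidin-APC after a 60-min room-temperature kinase step. That step used ERK2 (25 nM in enzyme mix), biotinylated MBP peptide (1 uM) and ATP (24 uM) from the substrate mix, in pH 7.5 Tris buffer.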

Series [3] deals with human lung carcinoma xenograft model (A549; harboring KRAS mutation). Briefly: A549 human lung carcinoma xenograft model, tumor growth inhibition. It is filed as in vivo, mice. The note with it: 50 mg/kg BID orally for 20 days. On the procedure:
In Vivo Studies in Tumor Xenograft Models
Tumor Cell Implantation and Randomization of Animals
Foxn1 nu/nu strain of female mice (obtained from Charles River Laboratories, USA), 8-10 weeks of age, body weight range 23-25 g, were used for the tumor xenograft efficacy studies. Human cancer cell lines (such as melanoma A375, colorectal HT29, pancreatic BxPC3, colorectal HCT116, and lung A549) were first grown in vitro, and then about five million (5×10^6) of these cells in 100 μL of serum free medium were mixed with an equal amount of matrigel, and the entire mixture was injected subcutaneously at the right flank region of mice. The tumors were measured with Vernier calipers periodically after the first week of injection. When the tumor volume reached 120-150 mm^3 (about 3-4 weeks after injection) the animals were randomized into different groups so that their tumor volume was approximately the same in all groups.
Determination of In Vivo Efficacy of Tumor Growth Inhibition
For PO dosing, the compounds were prepared in a formulation containing 0.5% Methyl cellulose and 0.01% Tween 80. For IV, SC, or IP dosing, the compounds were prepared in 6% solutol-ethanol (1:1), 6% DMSO and 88% saline. Animals were dosed with compounds prepared in specific formulations via PO, IP or SC route either QD or BID at the required doses. Tumors size and body weights were measured twice or thrice in a week. Tumors were harvested at the end of the study after euthanizing the animals according to approved protocols. […]
Changes in tumor volume (Δ volumes) for each treated (T) and control (C) group were calculated by subtracting the mean tumor volume on the first day of treatment (starting day) from the mean tumor volume on the specified observation day. […]
Percentage tumor growth inhibition was calculated as [100−% T/C]. Percentage body weight change was calculated as [(Body weight on specified observation day−Body weight on starting day)/Body weight on starting day]×100.
On the technique in general: In xenograft studies the graft and the host belong to different species.

One may read the melting point as the temperature of the solid-liquid transition. Broadly, the IC50 is the point on the concentration scale where inhibition reaches its midpoint. High values mean weaker potency in that assay, low ones greater potency in that assay.

T1 sequence (P27361 whole entry): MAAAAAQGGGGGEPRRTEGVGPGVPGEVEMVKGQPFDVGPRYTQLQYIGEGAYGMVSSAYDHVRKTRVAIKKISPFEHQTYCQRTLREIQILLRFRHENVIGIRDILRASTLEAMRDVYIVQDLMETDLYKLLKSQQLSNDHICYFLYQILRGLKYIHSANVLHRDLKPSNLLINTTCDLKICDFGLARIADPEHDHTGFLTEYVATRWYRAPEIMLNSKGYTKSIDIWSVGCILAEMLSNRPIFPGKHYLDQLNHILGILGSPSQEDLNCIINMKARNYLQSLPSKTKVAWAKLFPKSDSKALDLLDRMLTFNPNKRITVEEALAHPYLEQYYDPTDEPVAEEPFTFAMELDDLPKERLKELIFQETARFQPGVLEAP

`Cc1cnc(Nc2ccc3c(c2)OCO3)nc1-n1cc(NC(=O)N[C@H](CO)c2ccccc2)cn1` [Compound 55, (S)-1-(1-(2-(benzo[d][1,3]dioxol-5-ylamino)-5-methylpyrimidin-4-yl)-1H-pyrazol-4-yl)-3-(2-hydroxy-1-phenylethyl)urea] gave a melting point of 208.3 °C. In addition, in series [1] (HTRF), the IC50 lay in the range of 50 to 100 nM. This molecule displayed an IC50 in series [2] (HTRF) of 50 to 100 nM.
With `O=C(NC(CO)c1cccc(Cl)c1)c1cn(-c2ccnc(Nc3ccccc3)c2)cn1` (centres unmarked) [Compound 77, N-(1-(3-chlorophenyl)-2-hydroxyethyl)-1-(2-(phenylamino)pyridin-4-yl)-1H-imidazole-4-carboxamide], the melting point was 130 °C. This molecule yielded an IC50 in series [1] (HTRF) below 50 nM. In addition, in series [2] (HTRF), the IC50 is at most 50 nM.
As to `Cc1cnc(Nc2ccc(F)cc2)cc1-n1ccc(C(=O)NC(CN)c2cccc(Cl)c2)c1` (centres unmarked) [Compound 159, N-(2-Amino-1-(3-chlorophenyl)ethyl)-1-(2-((4-fluorophenyl)amino)-5-methylpyridin-4-yl)-1H-pyrrole-3-carboxamide], the melting point came to 118.1 °C. This molecule also showed an IC50 in series [1] (HTRF) of 50 to 100 nM. Besides, the IC50 in series [2] (HTRF) is at most 50 nM.
The molecule `Cc1cnc(Nc2ccc(F)cc2)cc1-n1cnc(C(=O)NC(CN)c2ccccc2)c1` (centres unmarked) [Compound 191, N-(2-amino-1-phenylethyl)-1-(2-((4-fluorophenyl)amino)-5-methylpyridin-4-yl)-1H-imidazole-4-carboxamide] showed a melting point of 154.7 °C. The IC50 in series [1] (HTRF) is below 50 nM. In series [2] (HTRF), this molecule displayed an IC50 of 50 to 100 nM.
`Cc1cnc(N[C@H]2CCOC2)nc1-n1cnc(C(=O)N[C@H](CO)c2cccc(Cl)c2)c1` [Compound 192, N-((S)-1-(3-Chlorophenyl)-2-hydroxyethyl)-1-(5-methyl-2-(((S)-tetra-hydrofuran-3-yl)amino)pyrimidin-4-yl)-1H-imidazole-4-carboxamide]: the melting point stood at 117 °C. Besides, in series [1] (HTRF), the IC50 is below 50 nM. In addition, in series [2] (HTRF), the IC50 was at most 50 nM.
For the molecule `Cc1cnc(NC2CCOCC2)nc1-n1cnc(C(=O)N[C@H](CN)c2cccc(Cl)c2)c1.O=S(=O)(O)c1ccccc1` [Example 300, (S)-N-(2-amino-1-(3-chlorophenyl)-ethyl)-1-(5-methyl-2-((tetrahydro-2H-pyran-4-yl)amino)-pyrimidin-4-yl)-1H-imidazole-4-carboxamide benzenesulfonic acid salt], in series [3], the body weight loss entry was “no significant body weight loss”.
In the case of `Cc1cnc(NC2CCOCC2)nc1-n1cnc(C(=O)N[C@H](CNCCO)c2cccc(Cl)c2)c1` [Example 333, (S)-N-(1-(3-chlorophenyl)-2-((2-hydroxyethyl)amino)ethyl)-1-(5-methyl-2-((tetrahydro-2H-pyran-4-yl)amino)-pyrimidin-4-yl)-1H-imidazole-4-carboxamide], the results for the IC50 in series [1] (HTRF biochemical assay) and in series [2] (HTRF biochemical assay) were below 50 nM and at most 50 nM, respectively.
For `Cc1cnc(NC2CCOCC2)nc1-n1cnc(C(=O)NCc2cccc(Cl)c2CCO)c1` [Example 334, N-(3-chloro-2-hydroxyethylbenzyl)-1-(5-methyl-2-((tetrahydro-2H-pyran-4-yl)amino)-pyrimidin-4-yl)-1H-imidazole-4-carboxamide] the same measures were below 50 nM and at most 50 nM.
For `Cc1cnc(NC2CCOCC2)nc1-n1cnc(C(=O)NCc2cccc(CO)c2Cl)c1` [Example 335, N-(2-chloro-3-(hydroxymethyl)-benzyl)-1-(5-methyl-2-((tetrahydro-2H-pyran-4-yl)amino)-pyrimidin-4-yl)-1H-imidazole-4-carboxamide] the same measures were below 50 nM and at most 50 nM.
On to `CC[C@H](CO)Nc1ncc(C)c(-n2cnc(C(=O)NCc3cccc(Cl)c3CO)c2)n1` [Example 336, (R)-N-(3-chloro-2-(hydroxymethyl)-benzyl)-1-(2-((1-hydroxybutan-2-yl)amino)-5-methylpyrimidin-4-yl)-1H-imidazole-4-carboxamide], for which the IC50 in series [1] (HTRF biochemical assay) is below 50 nM; in series [2] (HTRF biochemical assay), at most 50 nM.
Taken in the same sequence, the figures for `Cc1cnc(NC2CCOCC2)nc1-n1cnc(C(=O)N[C@H](CNCC(C)(C)C)c2cccc(Cl)c2)c1` [Example 337, (S)-N-(1-(3-chlorophenyl)-2-(neopentylamino)-ethyl)-1-(5-methyl-2-((tetrahydro-2H-pyran-4-yl)amino)-pyrimidin-4-yl)-1H-imidazole-4-carboxamide] were below 50 nM and at most 50 nM.
Taken in the same sequence, the figures for `Cc1cnc(N[C@H]2CCOC2)nc1-n1cnc(C(=O)NCc2cccc(CO)c2Cl)c1` [Example 338, (S)-N-(2-chloro-3-(hydroxymethyl)-benzyl)-1-(5-methyl-2-((tetrahydrofuran-3-yl)amino)-pyrimidin-4-yl)-1H-imidazole-4-carboxamide] were below 50 nM and at most 50 nM.
For `Cc1cnc(NC2CCOCC2)nc1-n1cnc(C(=O)N[C@H](CNCC2CC2)c2cccc(Cl)c2)c1` [Example 339, 1-[5-Methyl-2-(tetrahydro-pyran-4-ylamino)-pyrimidin-4-yl]-1H-imidazole-4-carboxylic acid [(S)-1-(3-chloro-phenyl)-2-(cyclopropylmethyl-amino)-ethyl]-amide] the same measures were below 50 nM and at most 50 nM.
`CC(=O)OCc1c(Cl)cccc1CNC(=O)c1cn(-c2nc(NC3CCOCC3)ncc2C)cn1` [Example 340, 2-chloro-6-((1-(5-methyl-2-((tetrahydro-2H-pyran-4-yl)amino)-pyrimidin-4-yl)-1H-imidazole-4-carboxamido)-methyl)benzyl acetate]: the IC50 in series [1] (HTRF biochemical assay) is below 50 nM; in series [2] (HTRF biochemical assay), at most 50 nM.
Taken in the same sequence, the figures for `Cc1cnc(NC2CCOCC2)nc1-n1cnc(C(=O)NC(C)(C)c2cccc(Cl)c2CO)c1` [Example 341, N-(2-(3-chloro-2-(hydroxymethyl)-phenyl)propan-2-yl)-1-(5-methyl-2-((tetrahydro-2H-pyran-4-yl)amino)-pyrimidin-4-yl)-1H-imidazole-4-carboxamide] were below 50 nM and at most 50 nM.
On to `CC(=O)OCc1c(Cl)cccc1CNC(=O)c1cn(-c2nc(N[C@H]3CCOC3)ncc2C)cn1` [Example 342, (S)-2-chloro-6-((1-(5-methyl-2-((tetrahydrofuran-3-yl)amino)pyrimidin-4-yl)-1H-imidazole-4-carboxamido)-methyl)benzyl acetate], for which the IC50 in series [1] (HTRF biochemical assay) is below 50 nM; in series [2] (HTRF biochemical assay) it was at most 50 nM.
Taken in the same sequence, the figures for `Cc1cnc(NC2CCOCC2)nc1-n1cnc(C(=O)NCc2ccc(Cl)cc2CO)c1` [Example 343, N-(4-chloro-2-hydroxymethyl-benzyl)-1-(5-methyl-2-((tetrahydro-2H-pyran-4-yl)amino)-pyrimidin-4-yl)-1H-imidazole-4-carboxamide] were below 50 nM and at most 50 nM.
Taken in the same sequence, the figures for `Cc1cnc(N[C@@H]2CCOC2)nc1-n1cnc(C(=O)NCc2cccc(Cl)c2CO)c1` [Example 344, (R)-N-(3-chloro-2-(hydroxymethyl)-benzyl)-1-(5-methyl-2-((tetrahydrofuran-3-yl)amino)-pyrimidin-4-yl)-1H-imidazole-4-carboxamide] were below 50 nM and at most 50 nM.
Regarding `CNCCNC[C@@H](NC(=O)c1cn(-c2nc(NC3CCOCC3)ncc2C)cn1)c1cccc(Cl)c1` [Example 345, ((S)-N-(1-(3-chlorophenyl)-2-((2-(methylamino)ethyl)amino)ethyl)-1-(5-methyl-2-((tetrahydro-2H-pyran-4-yl)amino)-pyrimidin-4-yl)-1H-imidazole-4-carboxamide2,2,2-trifluoroacetate], the half-inhibitory concentration (IC50) in series [1] (HTRF biochemical assay) is below 50 nM; in series [2] (HTRF biochemical assay), at most 50 nM.
Take `CCC(=O)OCc1c(Cl)cccc1CNC(=O)c1cn(-c2nc(NC3CCOCC3)ncc2C)cn1` [Example 348, 2-chloro-6-((1-(5-methyl-2-((tetrahydro-2H-pyran-4-yl)amino)-pyrimidin-4-yl)-1H-imidazole-4-carboxamido)-methyl)benzyl-propionate]: the IC50 is below 50 nM in series [1] (HTRF biochemical assay) and at most 50 nM in series [2] (HTRF biochemical assay).

The record behind these values is patent US9896445B2, “Heterocyclic inhibitors of ERK1 and ERK2 and their use in the treatment of cancer” (Asana Biosciences, LLC, priority 2015, dated 2018).
